Bounds are passed on as bounds.

The text below walks through data of patent US7868005B2, “Pyrazinyl substituted piperazine-piperidines with CXCR3 antagonist activity” (Schering Corporation, priority 2005, dated 2011).

This experiment deals with T1, human CXCR3 (N-delta 4) (Homo sapiens, UniProt P49682).
T1 construct: CD8 leader (N); Flag; expressed in transfected cells; membranes prepared
T1 sequence (P49682 5-368 limits assumed): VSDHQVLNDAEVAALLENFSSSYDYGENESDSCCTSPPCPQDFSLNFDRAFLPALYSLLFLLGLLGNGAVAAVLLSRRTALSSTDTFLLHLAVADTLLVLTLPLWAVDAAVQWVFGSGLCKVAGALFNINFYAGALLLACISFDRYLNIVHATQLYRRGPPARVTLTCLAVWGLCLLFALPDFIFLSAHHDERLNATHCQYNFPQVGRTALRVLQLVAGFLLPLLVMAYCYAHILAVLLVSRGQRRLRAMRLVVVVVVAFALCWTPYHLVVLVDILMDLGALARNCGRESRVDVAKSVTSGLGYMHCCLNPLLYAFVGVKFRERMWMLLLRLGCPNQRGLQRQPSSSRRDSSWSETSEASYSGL
Nature of the experiment: Human CXCR3 (N-delta 4) Scintillation Proximity Assay (SPA), [125I] IP-10 binding to Ba/F3-hCXCR3 membranes. As to conditions: IC50 rating, Table 1; read-out: IC50.
For the compound `CC[C@H]1CN(c2nc(N)c(C(=O)NCCNS(N)(=O)=O)nc2Cl)CCN1C1CCN(Cc2ccc(C#N)cc2)CC1` [compound 266], the IC50 (usually the midpoint of a concentration-inhibition curve) is less than 25 nM.
Turning to `CC[C@H]1CN(c2nc(N)c(C(=O)NCCNS(N)(=O)=O)nc2Cl)CCN1C1CCN(Cc2ccc(Cl)cc2C#N)CC1` [compound 267], the IC50 is less than 25 nM.
To `CC[C@H]1CN(c2nc(N)c(C(=O)NCCOC)nc2Cl)CCN1C1CCN(Cc2ccc(Cl)cc2)CC1` [compound 268] belongs less than 25 nM; to `CC[C@H]1CN(c2nc(N)c(C(=O)N=C(N)N)nc2Cl)CCN1C1CCN(Cc2ccc(Cl)cc2F)CC1` [compound 269], greater than 100 nM; to `CC[C@H]1CN(c2nc(N)c(C(=O)NNC(=S)NC)nc2Cl)CCN1C1CCN(Cc2ccc(Cl)cc2)CC1` [compound 270], less than 25 nM.
For `CC[C@H]1CN(c2nc(N)c(C(=O)NN)nc2Cl)CCN1C1CCN(Cc2ccc(Cl)cc2)CC1` [compound 271] the value was less than 25 nM.
For `CC[C@H]1CN(c2nc(N)c(C(=O)NNC(C)=O)nc2Cl)CCN1C1CCN(Cc2ccc(Cl)cc2)CC1` [compound 272] the value was 25 to 100 nM.
As to `CC[C@H]1CN(c2nc(N)c(C(=O)N[C@@H]3CCN(C(=O)OC(C)(C)C)C3)nc2Cl)CCN1C1CCN(Cc2ccc(Cl)cc2)CC1` [compound 274], the IC50 is greater than 100 nM.
To `CC[C@H]1CN(c2nc(N)c(C(=O)NCCCN3CCCS3(=O)=O)nc2Cl)CCN1C1CCN(Cc2ccc(C#N)cc2)CC1` [compound 275] belongs greater than 100 nM; to `CC[C@H]1CN(c2nc(N)c(C(=O)NCCCN3CCCC3=O)nc2Cl)CCN1C1CCN(Cc2ccc(C#N)cc2)CC1` [compound 276], greater than 100 nM.
For the compound `CC[C@H]1CN(c2nc(N)c(C(=O)NC3CCOC3=O)nc2Cl)CCN1C1CCN(Cc2ccc(Cl)cc2)CC1` (stereo partly shown) [compound 277], the IC50 was less than 25 nM.
In the case of `CC[C@H]1CN(c2nc(N)c(C(=O)NC3CCOC3=O)nc2Cl)CCN1C1CCN(Cc2ccc(Cl)cc2)CC1` (stereo partly shown) [compound 278], the 50% inhibitory concentration (IC50) was less than 25 nM.
On to `CC[C@H]1CN(c2nc(N)c(C(=O)N[C@H]3CCOC3=O)nc2Cl)CCN1C1CCN(Cc2ccc(Cl)cc2)CC1` [compound 279], for which the IC50 is less than 25 nM.
For `CC[C@H]1CN(c2nc(N)c(C(=O)N[C@@H]3CCNC3=O)nc2Cl)CCN1C1CCN(Cc2ccc(C#N)cc2)CC1` [compound 280] the value was greater than 100 nM; for `CC[C@H]1CN(c2nc(N)c(C(N)=O)nc2Cl)CCN1C1(C)CCN(Cc2ccc(Cl)cc2C(N)=O)CC1` [compound 281], greater than 100 nM.
For `CC[C@H]1CN(c2nc(N)c(C(N)=O)nc2Cl)CCN1C1CCN(Cc2ccc(Cl)cc2)[C@H](C(N)=O)C1` (stereo partly shown) [compound 282] the value was 25 to 100 nM.
With `CC[C@H]1CN(c2nc(N)c(C(N)=O)nc2Cl)CCN1[C@H]1CCN(Cc2ccc(Cl)cc2)C[C@@H]1O` [compound 283], the IC50 was greater than 100 nM.
For `CC[C@H]1CN(c2ncc(C(N)=O)nc2Cl)CCN1C1CCN(Cc2ccc(Cl)cc2F)CC1` [compound 284] the value was less than 25 nM.
`CC[C@H]1CN(c2ncc(C(N)=O)nc2Cl)CCN1C1CCN(Cc2ccc(Cl)cc2[C@H](O)C(N)=O)CC1` [compound 285]: the concentration for half-maximal inhibition (IC50) was less than 25 nM.
For `CC[C@H]1CN(c2ncc(C(N)=O)nc2Cl)CCN1C1CCN(Cc2ccc(Cl)cc2[C@@H](O)C(N)=O)CC1` [compound 286] the value was less than 25 nM; for `CNC(=O)c1cnc(N2C[C@H](C)N(C3CCN(Cc4ccc(Cl)cc4F)CC3)C[C@H]2C)cn1` [compound 287], greater than 100 nM.
Take `COC(=O)c1cnc(N2C[C@H](C)N(C3CCN(Cc4ccc(Cl)cc4F)CC3)C[C@H]2C)cn1` [compound 288]: the IC50 is greater than 100 nM.
To `C[C@@H]1CN(C2CCN(Cc3ccc(Cl)cc3F)CC2)[C@@H](C)CN1c1cnc(C(N)=O)cn1` [compound 289] belongs greater than 100 nM; to `CC[C@H]1CN(c2nc(N(C)C)c(C(=O)OC)nc2Cl)CCN1C1CCN(Cc2ccc(Cl)cc2)CC1` [compound 290], less than 25 nM.
Regarding `CC[C@H]1CN(c2nc(NC(=O)N(C)C)c(C(=O)OC)nc2Cl)CCN1C1CCN(Cc2ccc(Cl)cc2)CC1` [compound 291], the half-maximal inhibitory concentration (IC50) is 25 to 100 nM.
On to `CC[C@H]1CN(c2nc(NC(=O)C(F)(F)F)c(C(N)=O)nc2Cl)CCN1C1CCN(Cc2ccc(Cl)cc2F)CC1` [compound 292], for which the IC50 was less than 25 nM.
For `CC[C@H]1CN(c2nc(N)c(C(=O)O)nc2Cl)CCN1C1CCN(Cc2ccc(Cl)cc2)CC1` [compound 293] the value was greater than 100 nM; for `CC[C@H]1CN(c2nc(N)c(C(=O)OC)nc2Cl)CCN1C1CCN(Cc2ccc(Cl)cc2CCN)CC1` [compound 294], less than 25 nM; for `CC[C@H]1CN(c2nc(N)c(C(=O)OC)nc2Cl)CCN1C1CCN(Cc2ccc(Cl)cc2F)CC1` [compound 295], less than 25 nM.
For `CC[C@H]1CN(c2nc(N)c(C(=O)OC)nc2Cl)CCN1C1CCN(Cc2ccc(Cl)cc2CCNC(=O)OC(C)(C)C)CC1` [compound 296] the value was less than 25 nM; for `CC[C@H]1CN(c2nc(N)c(C(=O)OC)nc2Cl)CCN1C1CCN(Cc2ccc(Cl)cc2OCCNC(=O)NC(C)(C)C)CC1` [compound 297], 25 to 100 nM.
For `CCNC(=O)NCCc1cc(Cl)ccc1CN1CCC(N2CCN(c3nc(N)c(C(=O)OC)nc3Cl)C[C@@H]2CC)CC1` [compound 298] the value was 25 to 100 nM.
Regarding `CC[C@H]1CN(c2nc(N)c(C(=O)OC)nc2Cl)CCN1C1CCN(Cc2ccc(Cl)cc2CC#N)CC1` [compound 299], the IC50 fell in the range of 25 to 100 nM.
To `CC[C@H]1CN(c2nc(N)c(C(=O)OC)nc2Cl)CCN1C1CCN(Cc2ccc(Cl)cc2C#N)CC1` [compound 300] belongs greater than 100 nM; to `COC(=O)c1nc(Cl)c(N2C[C@H](C)N(C3CCN(Cc4ccc(Cl)cc4F)CC3)C[C@H]2C)nc1N` [compound 301], greater than 100 nM.
For `COC(=O)c1nc(Cl)c(N2CCN(C3CCN(Cc4ccc(Cl)cc4)CC3)[C@@H](C)C2)nc1N` [compound 302] the value was greater than 100 nM; for `CC[C@H]1CN(c2nc(N)c(C(=O)OC)nc2Cl)CCN1C1CCN(Cc2ccc(Cl)cc2CCNS(C)(=O)=O)CC1` [compound 303], greater than 100 nM; for `CC[C@H]1CN(c2nc(N)c(C(=O)NCCO)nc2Cl)CCN1C1CCN(C2c3ccc(C#N)cc3CCC2O)CC1` (stereo partly shown) [compound 304], less than 25 nM.
For `CC[C@H]1CN(c2nc(N)c(C(=O)OC)nc2Cl)CCN1C1CCN(C2c3ccc(C#N)cc3CCC2O)CC1` (stereo partly shown) [compound 305] the value was greater than 100 nM.
For `CC[C@H]1CN(c2nc(N)c(C(=O)OC)nc2Cl)CCN1C1CCN(Cc2ccc(C#N)cc2O)CC1` [compound 306], the IC50 was greater than 100 nM.
Turning to `CC[C@H]1CN(c2nc(N)c(C(=O)OC)nc2Cl)CCN1C1CCN(Cc2ccc(C#N)cc2OCCO)CC1` [compound 307], the half-maximal inhibitory concentration (IC50) was greater than 100 nM.
For `CC[C@H]1CN(c2nc(N)c(C(=O)OC)nc2Cl)CCN1C1CCN(Cc2ccc(C#N)cc2OCCOC)CC1` [compound 308], the half-maximal inhibitory concentration (IC50) was greater than 100 nM.
Turning to `CC[C@H]1CN(c2nc(N)c(C(=O)OC)nc2Cl)CCN1C1CCN(Cc2ccc(Cl)cc2CCNC(C)=O)CC1` [compound 309], the IC50 is greater than 100 nM.
For the compound `CC[C@H]1CN(c2nc(N)c(C(=O)OC)nc2Cl)CCN1C1(C)CCN(Cc2ccc(Cl)cc2)CC1` [compound 310], the IC50 is greater than 100 nM.
As to `CC[C@H]1CN(c2cnc(C(=O)OC(C)C)c(N)n2)CCN1C1CCN(Cc2ccc(Cl)cc2)CC1` [compound 311], the IC50 was greater than 100 nM.
To `CC[C@H]1CN(c2nc(N)c(C(=O)N3CCN(C(=O)OC(C)(C)C)CC3)nc2Cl)CCN1C1CCN(Cc2ccc(Cl)cc2)CC1` [compound 312] belongs greater than 100 nM; to `CC[C@H]1CN(c2nc(N)c(C(=O)N3CCN(S(C)(=O)=O)CC3)nc2Cl)CCN1C1CCN(Cc2ccc(Cl)cc2)CC1` [compound 313], greater than 100 nM.
For `CC[C@H]1CN(c2nc(N)c(C(=O)NC3CC3)nc2Cl)CCN1C1CCN(C(=O)c2ccc(Cl)cc2O)CC1` [compound 314] the value was less than 25 nM; for `CC[C@H]1CN(c2nc(N)c(C(=O)NCCO)nc2Cl)CCN1C1CCN(C(=O)c2ccc(Cl)cc2OCCNC(=O)OC(C)(C)C)CC1` [compound 315], less than 25 nM; for `CC[C@H]1CN(c2nc(N)c(C(=O)NCCO)nc2Cl)CCN1C1CCN(C(=O)c2ccc(Cl)cc2OCCNS(=O)(=O)C(F)(F)F)CC1` [compound 316], less than 25 nM.
With `CC[C@H]1CN(c2nc(N)c(C(=O)NCCO)nc2Cl)CCN1C1CCN(C(=O)c2ccc(Cl)cc2CC#N)CC1` [compound 317], the IC50 is less than 25 nM.
Turning to `CC[C@H]1CN(c2nc(N)c(C(=O)NCCO)nc2Cl)CCN1C1CCN(C(=O)c2ccc(F)c(F)c2)CC1` [compound 318], the half-inhibitory concentration (IC50) was 25 to 100 nM.
For `CC[C@H]1CN(c2nc(N)c(C(=O)NC[C@H](C)O)nc2Cl)CCN1C1CCN(C(=O)c2ccc(Cl)cc2)CC1` [compound 319], the IC50 was in the range of 25 to 100 nM.
To `CC[C@H]1CN(c2nc(N)c(C(=O)NC(CO)CO)nc2Cl)CCN1C1CCN(C(=O)c2ccc(Cl)cc2)CC1` [compound 320] belongs 25 to 100 nM.
For `CC[C@H]1CN(c2nc(N)c(C(=O)NCCO)nc2Cl)CCN1C1CCN(C(=O)c2ccc(C)cc2O)CC1` [compound 321] the value was 25 to 100 nM; for `CC[C@H]1CN(c2nc(N)c(C(=O)NCCO)nc2Cl)CCN1C1CCN(C(=O)c2ccc(Cl)cc2O)CC1` [compound 322], 25 to 100 nM.
On to `CC[C@H]1CN(c2nc(N)c(C(=O)N[C@@H](C)CO)nc2Cl)CCN1C1CCN(C(=O)c2ccc(Cl)cc2)CC1` [compound 323], for which the half-inhibitory concentration (IC50) was 25 to 100 nM.
As for `CCOC(=O)COc1cc(Cl)ccc1C(=O)N1CCC(N2CCN(c3nc(N)c(C(=O)NCCO)nc3Cl)C[C@@H]2CC)CC1` [compound 324], the IC50 is greater than 100 nM.
